Patent US11046854B2, “Slippery liquid-infused porous surfaces that prevent microbial surface fouling” (Wisconsin Alumni Research Foundation, priority 2016, dated 2021)

What was measured:
Format in all cases: physicochemical
[1] = Release of QSIs and DMABI from SLIPS in PBS at 37° C. (UV/vis)
Experimental: Small Molecule Loading, Oil Infusion, and Characterization of Release. […] Immediately prior to use, loaded films were infused with silicone oil (for melting point and boiling point apparatuses; Sigma-Aldrich) by placing a 2.25 μL droplet of oil on each side and allowing the oil to spread over the entire surface. Excess oil was removed from the surface using tissue paper. […] At designated time points, substrates were removed from the incubation buffer and placed in fresh buffer before returning to the incubator. The release of the loaded agents into the incubation buffer was characterized using a UV/vis spectrophotometer.
Characterization of the release of QSIs and biofilm inhibitors from SLIPS.

[2] = Water droplet sliding velocity on compound-loaded SLIPS; settings: 10 μL water droplets, SLIPS loaded with the compound, tilt angle 10°; mean and standard error of six replicates
Description: All QSI-loaded SLIPS used in this study contained 240 nmol of compound per substrate and all DMABI-loaded SLIPS contained 300 nmol of compound.

[3] = Solubility of triclosan in silicone oil

SMILES	loaded compound released ([1]; after the first 24 hours)	additional compound released ([1]; over the next 150 hours)	Slide Velocity [2] [mm/s]	solubility in silicone oil [3]
Cc1cc2nc(N)[nH]c2cc1C [DMABI, Dimethyl-2-aminobenzamidazole]	approximately 40%	approximately 40%	7.4 ± 0.2	–
Oc1cc(Cl)ccc1Oc1ccc(Cl)cc1Cl [Triclosan, 5-chloro-2-(2,4-dichlorophenoxy)phenol]	–	–	–	soluble in silicone oil
